Measurements: US9326513B2, “Fungicidal compositions” (Syngenta Participations AG, priority 2011, dated 2016)
“And” between values parts separate entries of the source, which are not always exact repeats. Equal entries are not always repeated.

How the values were obtained:
[1] = test system: Blumeria graminis f. sp. tritici (Erysiphe graminis f. sp. tritici); assay: Blumeria graminis f. sp. tritici / wheat / leaf disc preventative (powdery mildew on wheat); format: in vivo; conditions: foliar, compared to untreated control leaf disks, read-out: disease control
Summary of the method: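 Wheat leaf segments (cv. Kanzler) on agar were sprayed with formulated compound in water, inoculated with powdery mildew 1 day later, and kept at 20° C, 60% rh (24 h dark, then 12 h light/12 h dark). Percent disease control versus untreated scored 6-8 days after application; tested at 200 ppm.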

[2] = test system: Puccinia recondita f. sp. tritici; assay: Puccinia recondita f. sp. tritici / wheat / leaf disc curative (brown rust); format: in vivo; conditions: foliar, compared to untreated control leaf disks, read-out: disease control
Description: Puccinia recondita f. sp. tritici/Wheat/Leaf Disc Curative (Brown Rust) Wheat leaf segments cv. Kanzler are placed on agar in multiwell plates (24-well format). The leaf segments are inoculated with a spore suspension of the fungus. Plates were stored in darkness at 19° C. and 75% rh. The formulated test compound diluted in water was applied 1 day after inoculation.

[3] = test system: Monographella nivalis (syn. Microdochium nivale, Fusarium nivale); assay: Monographella nivalis (snow mould, foot rot of cereals), PDB microtiter plate, visual after 72 hrs; format: cell-based; conditions: applied alone
Botrytis cinerea = Botrytis cinerea (gray mould), PDB microtiter plate, visual after 72 hrs; format: cell-based; conditions: alone; for inhibition at 0.00390625 ppm: rate 0.00390625 ppm; for inhibition at 0.0078125 ppm: rate 0.0078125 ppm; for inhibition at 0.015625 ppm: rate 0.015625 ppm; for inhibition at 0.03125 ppm: rate 0.03125 ppm; for inhibition at 0.03125 ppm / inhibition at 0.0625 ppm: read-out: Activity (%); for inhibition at 0.0625 ppm: rate 0.0625 ppm; for inhibition at 0.125 ppm: rate 0.125 ppm; for inhibition at 0.25 ppm: rate 0.25 ppm
Septoria tritici [4] = assay: Septoria tritici (leaf blotch), PDB microtiter plate, visual after 72 hrs; format: cell-based; conditions: Zymoseptoria tritici, single compound; for inhibition at 0.25 ppm: read-out: Activity (%)
[5] = test system: Mycosphaerella arachidis (y. Cercospora arachidicola); assay: Mycosphaerella arachidis (brown leaf spot of groundnut), PDB microtiter plate, visual after 5-6 days; format: cell-based; conditions: single compound
Septoria tritici [6] = assay: Septoria tritici (leaf blotch), YBG microtiter plate, photometric growth inhibition after 6 days; format: cell-based; conditions: Zymoseptoria tritici, 144 h, solo; for inhibition of growth at 0.15625 ppm: rate 0.15625 ppm, read-out: Activity; for inhibition of growth at 0.3125 ppm: rate 0.3125 ppm; for inhibition of growth at 0.625 ppm: rate 0.625 ppm; for inhibition of growth at 1.25 ppm: rate 1.25 ppm
Sclerotinia sclerotiorum = Sclerotinia sclerotiorum on oilseed rape, preventive treatment; format: in vivo; conditions: solo, 1 day preventive, 11 days after application
Excerpt: In the following Tables ‘Activity (%)’ means the assessed experimental activity (% disease control in this test when compared to untreated control leaf disks under the same conditions, which show extensive disease development) and “P” is the expected value calculated (expected) activity according to the COLBY formula (see above). The column headed ‘S?’ indicates whether or not synergy was observed, with ‘y’ meaning that synergy was observed.
Sclerotinia sclerotiorum on Oilseed Rape, Preventive Treatment
The compound activity was tested under 1 day preventive conditions. Oilseed rape plants with 3 unfolded leafs were sprayed with a track sprayer and 200 I/ha spray volume with the test compounds, either solo or in tankmix as shown in the table below.
1 day after application the plants were infested with a solution of Sclerotinia sclerotiorum mycelium. The plants were placed under plastic hoods and high humidity conditions in a climate chamber at 14 h day/10 h night cycle and 15° C. Disease infestation was evaluated visually 11 days after application and average activity calculated in relation to disease severity on untreated check.

Sphaerotheca fuliginea = Sphaerotheca fuliginea (powdery mildew) on cucumber, preventive treatment; format: in vivo; conditions: solo, 2 days preventive, 10 days after application
Excerpt: In the following Tables 'Activity (%)' means the assessed experimental activity (% disease control in this test when compared to untreated control leaf disks under the same conditions, which show extensive disease development) and “P” is the expected value calculated (expected) activity according to the COLBY formula (see above). The column headed 'S?' indicates whether or not synergy was observed, with 'y' meaning that synergy was observed. Sphaerotheca fuliqinea (Powdery Mildew) on Cucumber, Preventive Treatment […] Cucumber plants with unfolded cotyledons were sprayed with a roomsprayer and 40 ml/4 plants spray volume with the test compounds, either solo or in […] shown in the table below. 2 days after application the plants were infested with spores of Sphaerotheca fuliginea.

[7] = test system: Phakopsora pachyrhizi (triazole tolerant soybeanrust strain); assay: Phakopsora pachyrhizi on soybean, preventive treatment; format: in vivo; conditions: solo, soybean leaf discs, 1 day preventive, 11 days after application
Septoria tritici [8] = assay: Septoria tritici on wheat, preventive treatment; format: in vivo; conditions: solo, wheat Riband, 1 day preventive, 18 days after application

CCN(C)/C=N/c1cc(Br)c(OC(C)c2cc(F)cc(F)c2)nc1C (stereo not drawn) [Q.113] gave a pest or weed control at 200 ppm [1] of no less than 50%, a pest or weed control at 200 ppm [2] of no less than 50% and an inhibition at 0.00390625 ppm ([3]; Monographella nivalis, 0.00390625 ppm) of 0%. For the same molecule, the inhibition at 0.0078125 ppm ([3]; Monographella nivalis, 0.0078125 ppm) was 0%, the inhibition at 0.015625 ppm ([3]; Monographella nivalis, 0.015625 ppm) was 0% and the inhibition at 0.03125 ppm ([3]; Monographella nivalis, 0.03125 ppm) was 0%. The inhibition at 0.0625 ppm ([3]; Monographella nivalis, 0.0625 ppm) was 0%, the inhibition at 0.125 ppm ([3]; Monographella nivalis, 0.125 ppm) was 0% and the inhibition at 0.25 ppm ([3]; Monographella nivalis, 0.25 ppm) was 0%. For the same molecule, the inhibition at 2 ppm ([3]; Monographella nivalis, 2 ppm) was 70%, the inhibition at 2 ppm ([3]; Monographella nivalis, rate 2 ppm) was 70% and the “Activity (%)” value ([3]; 0.5 ppm) was 20%. For the same molecule, the “Activity (%)” value ([3]; 1 ppm) was 20%, the “Activity (%)” value ([3]; rate 0.125 ppm) was 2% and the “Activity (%)” value ([3]; rate 0.25 ppm) was 2%. For the same molecule, the “Activity (%)” value ([3]; rate 0.5 ppm) was 20%, the “Activity (%)” value ([3]; rate 1 ppm) was 20% and the inhibition at 0.00390625 ppm (Botrytis cinerea; Botrytis cinerea) was 0%. It also gave an inhibition at 0.0078125 ppm (Botrytis cinerea; Botrytis cinerea) of 0%, an inhibition at 0.015625 ppm (Botrytis cinerea; Botrytis cinerea) of 0% and an inhibition at 0.03125 ppm (Botrytis cinerea; Botrytis cinerea) of 0%. It also gave an inhibition at 0.0625 ppm (Botrytis cinerea; Botrytis cinerea) of 0%, an inhibition at 0.125 ppm (Botrytis cinerea; Botrytis cinerea) of 0% and an inhibition at 0.25 ppm (Botrytis cinerea; Botrytis cinerea) of 0%. It also gave an inhibition at 0.5 ppm (Botrytis cinerea; Botrytis cinerea, rate 0.5 ppm) of 0%, an inhibition at 1 ppm (Botrytis cinerea; Botrytis cinerea, rate 1 ppm) of 0% and an inhibition at 2 ppm (Botrytis cinerea; Botrytis cinerea, rate 2 ppm) of 0%. For the same molecule, the inhibition at 0.00390625 ppm (Septoria tritici [4]) was 0%, the inhibition at 0.0078125 ppm (Septoria tritici [4]) was 0% and the inhibition at 0.015625 ppm (Septoria tritici [4]) was 0%. The inhibition at 0.03125 ppm (Septoria tritici [4]) was 0%, the inhibition at 0.0625 ppm (Septoria tritici [4]) was 0% and the inhibition at 0.125 ppm (Septoria tritici [4]) was 0%. It also gave an inhibition at 0.25 ppm (Septoria tritici [4]) of 0%, an inhibition at 0.5 ppm (Septoria tritici [4]) of 0% and an inhibition at 1 ppm (Septoria tritici [4]) of 0%. For the same molecule, the inhibition at 2 ppm (Septoria tritici [4]) was 0%, the inhibition at 0.0078125 ppm ([5]; Mycosphaerella arachidis, 0.0078125 ppm, read-out: Activity (%)) was 0% and the inhibition at 0.015625 ppm ([5]; Mycosphaerella arachidis, 0.015625 ppm, read-out: Activity (%)) was 0%. For the same molecule, the inhibition at 0.25 ppm ([5]; Mycosphaerella arachidis, 0.25 ppm, read-out: Activity (%)) was 70%, the inhibition at 0.5 ppm ([5]; Mycosphaerella arachidis, 0.5 ppm, read-out: Activity (%)) was 70% and the “Activity (%)” value ([5]; 0.125 ppm) was 50%. For the same molecule, the inhibition of growth at 0.0195312 ppm (Septoria tritici [6]; rate 0.01953125 ppm) was 15%, the inhibition of growth at 0.0390625 ppm (Septoria tritici [6]; rate 0.0390625 ppm) was 28% and the inhibition of growth at 0.078125 ppm (Septoria tritici [6]; rate 0.078125 ppm) was 31%. The inhibition of growth at 0.15625 ppm (Septoria tritici [6]) was 42%, the inhibition of growth at 0.3125 ppm (Septoria tritici [6]) was 34% and the inhibition of growth at 0.625 ppm (Septoria tritici [6]) was 39%. For the same molecule, the inhibition of growth at 1.25 ppm (Septoria tritici [6]) was 42%, the inhibition of growth at 10 ppm (Septoria tritici [6]; rate 10 ppm) was 63% and the Activity (Sclerotinia sclerotiorum; rate 25 ppm) was 2%. It also gave an Activity (Sclerotinia sclerotiorum; rate 50 ppm) of 2%, an Activity (Sclerotinia sclerotiorum; rate 100 ppm) of 39% and an Activity (Sphaerotheca fuliginea; rate 0.2 ppm) of 0%. For the same molecule, the Activity (Sphaerotheca fuliginea; rate 0.6 ppm) was 0%, the Activity (Sphaerotheca fuliginea; rate 2 ppm) was 0% and the Activity ([7]; rate 0.5 g ai/ha) was 1%. The Activity ([7]; rate 2 g ai/ha) was 25%, the Activity (Septoria tritici [8]; 1 g a.i./ha) was 1% and the Activity (Septoria tritici [8]; 3 g a.i./ha) was 0%. It also gave an Activity (Septoria tritici [8]; 81 g a.i./ha) of 53%.

CCN(C)/C=N/c1cc(Br)c(O[C@H]2CC[C@@H](C(C)C)CC2)nc1C [Q.135] was tested, and the pest or weed control at 200 ppm [1] was no less than 50%, the pest or weed control at 200 ppm [2] was no less than 50% and the inhibition at 0.0078125 ppm ([3]; Monographella nivalis, rate 0.0078125 ppm) was 0%. The inhibition at 0.015625 ppm ([3]; Monographella nivalis, rate 0.015625 ppm) was 0%, the inhibition at 0.125 ppm ([3]; Monographella nivalis, rate 0.125 ppm) was 70% and the inhibition at 0.3125 ppm ([3]; Monographella nivalis, rate 0.3125 ppm) was 0%. The inhibition at 0.625 ppm ([3]; Monographella nivalis, rate 0.625 ppm) was 50%, the “Activity (%)” value ([3]; rate 0.0625 ppm) was 20% and the inhibition at 0.00390625 ppm (Botrytis cinerea; Botrytis cinerea) was 0%. The inhibition at 0.0078125 ppm (Botrytis cinerea; Botrytis cinerea) was 0%, the inhibition at 0.015625 ppm (Botrytis cinerea; Botrytis cinerea) was 0% and the inhibition at 0.03125 ppm (Botrytis cinerea; Botrytis cinerea) was 0%. For the same molecule, the inhibition at 0.0625 ppm (Botrytis cinerea; Botrytis cinerea) was 0%, the inhibition at 0.125 ppm (Botrytis cinerea; Botrytis cinerea) was 0% and the inhibition at 0.25 ppm (Botrytis cinerea; Botrytis cinerea) was 0%. The inhibition at 2 ppm (Botrytis cinerea; Botrytis cinerea, rate 2 ppm) was 70%, the “Activity (%)” value (Botrytis cinerea; rate 0.5 ppm) was 20% and the “Activity (%)” value (Botrytis cinerea; rate 1 ppm) was 20%. The “Activity (%)” value (Botrytis cinerea; rate 2 ppm) was 50%, the inhibition at 0.00390625 ppm (Septoria tritici [4]) was 0% and the inhibition at 0.0078125 ppm (Septoria tritici [4]) was 0%. It also gave an inhibition at 0.015625 ppm (Septoria tritici [4]) of 0%, an inhibition at 0.03125 ppm (Septoria tritici [4]) of 0% and an inhibition at 0.0625 ppm (Septoria tritici [4]) of 0%. For the same molecule, the inhibition at 0.125 ppm (Septoria tritici [4]) was 0%, the inhibition at 0.25 ppm (Septoria tritici [4]) was 0% and the inhibition at 0.5 ppm (Septoria tritici [4]) was 0%. The inhibition at 1 ppm (Septoria tritici [4]) was 0%, the inhibition at 2 ppm (Septoria tritici [4]) was 0% and the inhibition at 0.00390625 ppm ([5]; Mycosphaerella arachidis, 0.00390625 ppm, read-out: Activity (%)) was 0%. For the same molecule, the inhibition at 0.03125 ppm ([5]; Mycosphaerella arachidis, 0.03125 ppm, read-out: Activity (%)) was 50%, the inhibition at 0.0625 ppm ([5]; Mycosphaerella arachidis, 0.0625 ppm, read-out: Activity (%)) was 50% and the inhibition at 0.15625 ppm ([5]; Mycosphaerella arachidis, 0.15625 ppm) was 0%. The “Activity (%)” value ([5]; 0.015625 ppm) was 20%, the “Activity (%)” value ([5]; 0.03125 ppm) was 70% and the “Activity (%)” value ([5]; 0.0625 ppm) was 70%. It also gave an inhibition of growth at 0.15625 ppm (Septoria tritici [6]) of 29%, an inhibition of growth at 0.3125 ppm (Septoria tritici [6]) of 34% and an inhibition of growth at 0.625 ppm (Septoria tritici [6]) of 32%. It also gave an inhibition of growth at 1.25 ppm (Septoria tritici [6]) of 22%, an Activity (Sclerotinia sclerotiorum; rate 25 ppm) of 0% and an Activity (Sclerotinia sclerotiorum; rate 50 ppm) of 0%. It also gave an Activity (Sclerotinia sclerotiorum; rate 100 ppm) of 15%, an Activity (Sphaerotheca fuliginea; rate 0.2 ppm) of 0% and an Activity (Sphaerotheca fuliginea; rate 0.6 ppm) of 0%. The Activity (Sphaerotheca fuliginea; rate 2 ppm) was 0%, the Activity ([7]; rate 0.5 g ai/ha) was 13% and the Activity ([7]; rate 2 g ai/ha) was 41%. For the same molecule, the Activity (Septoria tritici [8]; 1 g a.i./ha) was 0%, the Activity (Septoria tritici [8]; 3 g a.i./ha) was 0% and 9% and the Activity (Septoria tritici [8]; 9 g a.i./ha) was 33% and 43%. For the same molecule, the Activity (Septoria tritici [8]; 27 g a.i./ha) was 52% and 82% and the Activity (Septoria tritici [8]; 81 g a.i./ha) was 70%.
